Data set [1] deals with adults with biopsy-confirmed NASH. Briefly: MAESTRO-NASH: non-invasive predictive markers of biopsy response. The conditions noted are these: 100 mg. Format: in vivo, human. The method, then:
Histologic endpoints were assessed after 52 weeks. […] The non-invasive correlates of response in the MAESTRO-NASH trial are summarized below.
Adults with ≥3 metabolic risk factors, liver stiffness ≥8.5 kPa, hepatic fat ≥8%, biopsy-confirmed NASH with F1B-F3 fibrosis, and NAS≥4 were eligible to participate in MAESTRO-NASH.
Random Forest model was utilized to determine the biomarkers and imaging tests both at baseline and change from baseline that had the most important association with response on biopsy for NASH resolution and/or fibrosis improvement. The data was based on baseline characteristics and change from baseline of more than 40 variables: biomarkers, clinical features, and imaging. This analysis confirmed the importance of MRI-PDFF (FIGS. 42-43).

For data set [2] the following is noted: human, in vivo.
Source text: (§1) Following once daily doses, steady state was typically reached within 3 to 6 days of dosing.
Data set [3] is described as follows: clinical. The conditions noted are these: human, in vivo.
Source text: as §1

The text below walks through data of patent US12377104B1, “Methods for treating a fatty liver disease” (Madrigal Pharmaceuticals, Inc., priority 2024, dated 2025).

Structures are written as SMILES.

Consider `CC(C)c1cc(Oc2c(Cl)cc(-n3nc(C#N)c(=O)[nH]c3=O)cc2Cl)n[nH]c1=O` [Resmetirom, 2-(3,5-dichloro-4-((5-isopropyl-6-oxo-1,6-dihydropyridazin-3-yl)oxy)phenyl)-3,5-dioxo-2,3,4,5-tetrahydro-1,2,4-triazine-6-carbonitrile], for which, in data set [1], the “NASH resolution responders with at least a 30% PDFF response” value is reported as 96% and the “fibrosis improvement responders with at least a 30% PDFF response” value is listed as 88%. In data set [2], the “exposure increase following once daily dosing” value is given as 1.5- to 3 fold, the exposure vs dose entry is reported as “greater than dose proportional”, the “steady state exposure vs dose” value is reported as “dose proportional” and the “time to steady state” value lay in the range of 3 to 6 days. For the same molecule, in data set [3], the Tmax is around 4 h and the half-life was 4.5 h. In data set [3] (80 mg), this molecule returned an AUC of 5.85 µg·h/mL and a Cmax of 0.778 µg/mL. In data set [3] (100 mg), this molecule returned an AUC of 7.78 µg·h/mL and a Cmax of 0.971 µg/mL.

As usually defined, the Tmax is the time from dosing to the highest level. By half-life is commonly meant how long it takes for the measured level to halve. In general, AUC refers to the area under the concentration-time curve, a measure of exposure. Low readings indicate less exposure, high ones more exposure. As usually defined, the Cmax is the maximum level reached in the sampled fluid or tissue.
